Laboratory results from patent publication US12721835B2, “Anticoccidial composition comprising violacein, and use thereof” (CJ CHEILJEDANG CORPORATION, priority 2020, dated 2026).

Tests used:
[1] = tested on: Eimeria maxima (E. maxima) protozoa; experiment: Heat resistance of violacein: protozoal death rate after heat exposure; type: cell-based
Description: In the present example, the heat resistance of the violacein was to be evaluated. […] 200,000 Eimeria maxima (E. maxima) protozoa were reacted to the violacein at various concentrations of 0.1 to 100 ppm at a temperature of 41° C. for 4 hours, and the protozoal death rate (%) was measured by the similar method to Example 3 above, and this was shown in FIG. 5 and Table 12. In Table 12 below, the control group means a violacein solution without treating the high temperature condition, and the protozoa alone means a group to which violacein was not treated.

[2] = In vivo safety evaluation: violacein content remaining in body after feeding (LC/MS); settings: chicken (broiler), cecum luminal intestinal contents, oral, 50 ppm in feed; broilers fed feed comprising 50 ppm violacein for 7 days; read-out: Violacein content (mg/kg), Cecum luminal intestinal contents
Description: The safety evaluation of violacein was conducted in a breeding facility under the condition described in Example 1. At 7 days of age, broilers were fed a feed comprising 50 ppm violacein for 7 days, and an autopsy was conducted at 14 days of age, and the feed, appendix luminal intestinal contents, blood, spleen, liver and kidney were collected. For the feed used in formulation with the violacein, Daehanfeed Al-Choi product was used.
Each sample of the collected tissue was tested for the content of violacein through the HPLC method. For feed pretreatment, 1 g of each treatment group was weighed and diluted by adding 10 ? of MTBE solution, and then sonication was progressed for 1 hour, and filtration was performed using a […] syringe filter. Then, after evaporating the filtered sample for 1 hour, 1 ? , of 100% methanol was added. In addition, sonication was conducted for 1 minute, and it not dissolved, the supernatant was filtered once more using a […] syringe filter, and then placed in a vial for analysis. […] Then, the samples in which pretreatment was completed were analyzed using a set LC/MS instrument to measure the amount of violacein remaining in a body after feeding, and the result was shown in Table 13 below. In Table 13, ND (not detected) means not detected.

O=C1N=c2ccccc2=C1c1cc(-c2c[nH]c3ccc(O)cc23)[nH]c1O [Violacein, 3-(2-(5-Hydroxyindol-3-yl)-5-oxo-2-pyrrolin-4-ylidene)-2-indolinone]
Death rate according to violacein treatment condition ([1]; 85° C., 10 min, 0.1 ppm): 62% | Death rate according to violacein treatment condition ([1]; 85° C., 10 min, 1 ppm): 89% | Death rate according to violacein treatment condition ([1]; 85° C., 10 min, 10 ppm): 99% | Death rate according to violacein treatment condition ([1]; 85° C., 10 min, 100 ppm): 100% | Death rate according to violacein treatment condition ([1]; 90° C., 10 min, 0.1 ppm): 65% | Death rate according to violacein treatment condition ([1]; 90° C., 10 min, 1 ppm): 88% | Death rate according to violacein treatment condition ([1]; 90° C., 10 min, 10 ppm): 99% | Death rate according to violacein treatment condition ([1]; 90° C., 10 min, 100 ppm): 100% | Death rate according to violacein treatment condition ([1]; 95° C., 10 min, 0.1 ppm): 69% | Death rate according to violacein treatment condition ([1]; 95° C., 10 min, 1 ppm): 90% | Death rate according to violacein treatment condition ([1]; 95° C., 10 min, 10 ppm): 99% | Death rate according to violacein treatment condition ([1]; 95° C., 10 min, 100 ppm): 100% | Death rate according to violacein treatment condition ([1]; Control group (no high temperature), 0.1 ppm): 64% | Death rate according to violacein treatment condition ([1]; Control group (no high temperature), 1 ppm): 85% | Death rate according to violacein treatment condition ([1]; Control group (no high temperature), 10 ppm): 100% | Death rate according to violacein treatment condition ([1]; Control group (no high temperature), 100 ppm, 41° C. 4 hours): 100% | Heat resistance (killing efficacy after high temperature) ([1]; high temperature (80 to 95° C.), 10 minutes): the protozoal killing efficacy of violacein did not appear | concentration at 7 days of feeding [2]: 2100 ng/g
